Source: PubChem BioAssay AID1918948 (Molecular Pharmacology Branch, DTP, NCI, 2023)

System: K-562 leukemia growth, % test/control
Assay: Anticancer human tumor K-562 cell line growth inhibition;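 also: spheroids exposed to compounds for 7 days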;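 as to viability, T/C: 100% = DMSO vehicle wells and lower values mean fewer viable cells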
Conditions: spheroids with HUVEC and MSC; for IC50: curve of first compound; for viability, T/C: stronger effect = lower value
In short: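 Multicellular complex spheroids of tumor cells with human endothelial cells (HUVEC) and mesenchymal stem cells; the LSD1 inhibitor iadademstat was combined with standard-of-care or investigational agents. Top concentration at or near clinical Cmax, half-log dilutions; final DMSO ≤0.25%.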

[1] = second compound 0.1 µM, first compound 0.00949 µM
[2] = second compound 0.1 µM, first compound 0.03 µM
[3] = second compound 0.1 µM, first compound 0.0949 µM
[4] = second compound 0.1 µM, first compound 0.3 µM
[5] = second compound 0.316 µM, first compound 0.00949 µM
[6] = second compound 0.316 µM, first compound 0.03 µM
[7] = second compound 0.316 µM, first compound 0.0949 µM
[8] = second compound 0.316 µM, first compound 0.3 µM
[9] = second compound 1 µM, first compound 0.00949 µM
[10] = second compound 1 µM, first compound 0.03 µM
[11] = second compound 1 µM, first compound 0.0949 µM
[12] = second compound 1 µM, first compound 0.3 µM
[13] = second compound 3.16 µM, first compound 0.00949 µM
[14] = second compound 3.16 µM, first compound 0.03 µM
[15] = second compound 3.16 µM, first compound 0.0949 µM
[16] = second compound 3.16 µM, first compound 0.3 µM
[17] = second compound 10 µM, first compound 0.00949 µM
[18] = second compound 10 µM, first compound 0.03 µM
[19] = second compound 10 µM, first compound 0.0949 µM
[20] = second compound 10 µM, first compound 0.3 µM

Compound: CC1(C)CCC(CN2CCN(c3ccc(C(=O)NS(=O)(=O)c4ccc(NCC5CCOCC5)c([N+](=O)[O-])c4)c(Oc4cnc5[nH]ccc5c4)c3)CC2)=C(c2ccc(Cl)cc2)C1 + NC1CC1c1ccc(-c2cccc(O)c2)cc1
- IC50 (second compound 0.1 µM): 4650 nM
- IC50 (second compound 0.316 µM): 4700 nM
- IC50 (second compound 1 µM): 4520 nM
- IC50 (second compound 3.16 µM): 4470 nM
- IC50 (second compound 10 µM): 3190 nM
- viability, T/C (second compound 0.1 µM, first compound 0.0316 µM): 112%
- viability, T/C (second compound 0.1 µM, first compound 0.1 µM): 114%
- viability, T/C (second compound 0.1 µM, first compound 0.316 µM): 118%
- viability, T/C (second compound 0.1 µM, first compound 1 µM): 121%
- viability, T/C (second compound 0.1 µM, first compound 3.16 µM): 74.6%
- viability, T/C (second compound 0.1 µM, first compound 10 µM): 1.4%
- viability, T/C (second compound 0.316 µM, first compound 0.0316 µM): 104%
- viability, T/C (second compound 0.316 µM, first compound 0.1 µM): 109%
- viability, T/C (second compound 0.316 µM, first compound 0.316 µM): 110%
- viability, T/C (second compound 0.316 µM, first compound 1 µM): 114%
- viability, T/C (second compound 0.316 µM, first compound 3.16 µM): 75.4%
- viability, T/C (second compound 0.316 µM, first compound 10 µM): 1.76%
- viability, T/C (second compound 1 µM, first compound 0.0316 µM): 102%
- viability, T/C (second compound 1 µM, first compound 0.1 µM): 106%
- viability, T/C (second compound 1 µM, first compound 0.316 µM): 106%
- viability, T/C (second compound 1 µM, first compound 1 µM): 108%
- viability, T/C (second compound 1 µM, first compound 3.16 µM): 71.8%
- viability, T/C (second compound 1 µM, first compound 10 µM): 1.59%
- viability, T/C (second compound 3.16 µM, first compound 0.0316 µM): 105%
- viability, T/C (second compound 3.16 µM, first compound 0.1 µM): 105%
- viability, T/C (second compound 3.16 µM, first compound 0.316 µM): 107%
- viability, T/C (second compound 3.16 µM, first compound 1 µM): 102%
- viability, T/C (second compound 3.16 µM, first compound 3.16 µM): 70.7%
- viability, T/C (second compound 3.16 µM, first compound 10 µM): 1.97%
- viability, T/C (second compound 10 µM, first compound 0.0316 µM): 102%
- viability, T/C (second compound 10 µM, first compound 0.1 µM): 104%
- viability, T/C (second compound 10 µM, first compound 0.316 µM): 105%
- viability, T/C (second compound 10 µM, first compound 1 µM): 104%
- viability, T/C (second compound 10 µM, first compound 3.16 µM): 50.4%
- viability, T/C (second compound 10 µM, first compound 10 µM): 1.78%

Compound: CCN(c1cc(-c2ccc(CN3CCOCC3)cc2)cc(C(=O)NCc2c(C)cc(C)[nH]c2=O)c1C)C1CCOCC1 + NC1CC1c1ccc(-c2cccc(O)c2)cc1
- IC50 (second compound 0.1 µM): 2040 nM
- IC50 (second compound 0.316 µM): 1940 nM
- IC50 (second compound 1 µM): 1790 nM
- IC50 (second compound 3.16 µM): 1650 nM
- IC50 (second compound 10 µM): 904 nM
- viability, T/C [1]: 116%
- viability, T/C [2]: 117%
- viability, T/C [3]: 116%
- viability, T/C [4]: 110%
- viability, T/C (second compound 0.1 µM, first compound 0.949 µM): 82.9%
- viability, T/C (second compound 0.1 µM, first compound 3 µM): 33.5%
- viability, T/C [5]: 115%
- viability, T/C [6]: 117%
- viability, T/C [7]: 115%
- viability, T/C [8]: 108%
- viability, T/C (second compound 0.316 µM, first compound 0.949 µM): 80.5%
- viability, T/C (second compound 0.316 µM, first compound 3 µM): 31.6%
- viability, T/C [9]: 108%
- viability, T/C [10]: 111%
- viability, T/C [11]: 118%
- viability, T/C [12]: 110%
- viability, T/C (second compound 1 µM, first compound 0.949 µM): 75.9%
- viability, T/C (second compound 1 µM, first compound 3 µM): 28.9%
- viability, T/C [13]: 109%
- viability, T/C [14]: 111%
- viability, T/C [15]: 114%
- viability, T/C [16]: 103%
- viability, T/C (second compound 3.16 µM, first compound 0.949 µM): 70.8%
- viability, T/C (second compound 3.16 µM, first compound 3 µM): 27.7%
- viability, T/C [17]: 105%
- viability, T/C [18]: 109%
- viability, T/C [19]: 109%
- viability, T/C [20]: 92.2%
- viability, T/C (second compound 10 µM, first compound 0.949 µM): 48.5%
- viability, T/C (second compound 10 µM, first compound 3 µM): 20.1%

Compound: Nc1ncn(C2CC(O)C(CO)S2)c(=O)n1 (stereo not given) + NC1CC1c1ccc(-c2cccc(O)c2)cc1
- IC50 (second compound 0.1 µM): 91.1 nM
- IC50 (second compound 0.316 µM): 84.4 nM
- IC50 (second compound 1 µM): 79 nM
- IC50 (second compound 3.16 µM): 76.8 nM
- IC50 (second compound 10 µM): 55.8 nM
- viability, T/C (second compound 0.1 µM, first compound 0.000949 µM): 110%
- viability, T/C (second compound 0.1 µM, first compound 0.003 µM): 108%
- viability, T/C [1]: 107%
- viability, T/C [2]: 93.2%
- viability, T/C [3]: 48.4%
- viability, T/C [4]: 17.1%
- viability, T/C (second compound 0.316 µM, first compound 0.000949 µM): 103%
- viability, T/C (second compound 0.316 µM, first compound 0.003 µM): 104%
- viability, T/C [5]: 103%
- viability, T/C [6]: 90.3%
- viability, T/C [7]: 45.5%
- viability, T/C [8]: 16.3%
- viability, T/C (second compound 1 µM, first compound 0.000949 µM): 102%
- viability, T/C (second compound 1 µM, first compound 0.003 µM): 103%
- viability, T/C [9]: 104%
- viability, T/C [10]: 88%
- viability, T/C [11]: 42.9%
- viability, T/C [12]: 15.6%
- viability, T/C (second compound 3.16 µM, first compound 0.000949 µM): 98.5%
- viability, T/C (second compound 3.16 µM, first compound 0.003 µM): 105%
- viability, T/C [13]: 102%
- viability, T/C [14]: 85.6%
- viability, T/C [15]: 42.1%
- viability, T/C [16]: 16.3%
- viability, T/C (second compound 10 µM, first compound 0.000949 µM): 98.8%
- viability, T/C (second compound 10 µM, first compound 0.003 µM): 101%
- viability, T/C [17]: 98%
- viability, T/C [18]: 72.6%
- viability, T/C [19]: 30.5%
- viability, T/C [20]: 12.3%
